# Numbers after ± are expanded uncertainties.
# Legend:
# [1] = excess molar enthalpy (molar enthalpy of mixing); xn = mol fraction of the nth substance listed; details: 101 kPa, Liquid, Flow calorimetry
# [2] = xn = mol fraction of the nth substance listed; details: 101 kPa, Liquid
compound,measurement,setting,value
CC1CCCO1 (configuration not stated) [2-methyltetrahydrofuran] + CCCCO,excess molar enthalpy,"[1]; 283.15 K, x1 = 0.054",0.0237 ± 0.000717 kcal/mol
same,excess molar enthalpy,"[1]; 283.15 K, x1 = 0.104",0.0492 ± 0.0012 kcal/mol
same,excess molar enthalpy,"[1]; 283.15 K, x1 = 0.206",0.092 ± 0.00191 kcal/mol
same,excess molar enthalpy,"[1]; 283.15 K, x1 = 0.308",0.131 ± 0.00287 kcal/mol
same,excess molar enthalpy,"[1]; 283.15 K, x1 = 0.411",0.154 ± 0.00335 kcal/mol
same,excess molar enthalpy,"[1]; 283.15 K, x1 = 0.51",0.166 ± 0.00359 kcal/mol
same,excess molar enthalpy,"[1]; 283.15 K, x1 = 0.609",0.166 ± 0.00359 kcal/mol
same,excess molar enthalpy,"[1]; 283.15 K, x1 = 0.708",0.151 ± 0.00335 kcal/mol
same,excess molar enthalpy,"[1]; 283.15 K, x1 = 0.806",0.121 ± 0.00263 kcal/mol
same,excess molar enthalpy,"[1]; 283.15 K, x1 = 0.907",0.0696 ± 0.00143 kcal/mol
same,excess molar enthalpy,"[1]; 283.15 K, x1 = 0.953",0.038 ± 0.000956 kcal/mol
same,excess molar enthalpy,"[1]; 298.15 K, x1 = 0.054",0.0263 ± 0.000717 kcal/mol
same,excess molar enthalpy,"[1]; 298.15 K, x1 = 0.104",0.0526 ± 0.0012 kcal/mol
same,excess molar enthalpy,"[1]; 298.15 K, x1 = 0.206",0.102 ± 0.00215 kcal/mol
same,excess molar enthalpy,"[1]; 298.15 K, x1 = 0.308",0.14 ± 0.00311 kcal/mol
same,excess molar enthalpy,"[1]; 298.15 K, x1 = 0.411",0.166 ± 0.00359 kcal/mol
same,excess molar enthalpy,"[1]; 298.15 K, x1 = 0.51",0.179 ± 0.00382 kcal/mol
same,excess molar enthalpy,"[1]; 298.15 K, x1 = 0.609",0.178 ± 0.00382 kcal/mol
same,excess molar enthalpy,"[1]; 298.15 K, x1 = 0.708",0.162 ± 0.00359 kcal/mol
same,excess molar enthalpy,"[1]; 298.15 K, x1 = 0.806",0.129 ± 0.00287 kcal/mol
same,excess molar enthalpy,"[1]; 298.15 K, x1 = 0.907",0.0741 ± 0.00167 kcal/mol
same,excess molar enthalpy,"[1]; 298.15 K, x1 = 0.953",0.0406 ± 0.000956 kcal/mol
same,excess molar enthalpy,"[1]; 313.15 K, x1 = 0.054",0.0277 ± 0.000717 kcal/mol
same,excess molar enthalpy,"[1]; 313.15 K, x1 = 0.104",0.0559 ± 0.0012 kcal/mol
same,excess molar enthalpy,"[1]; 313.15 K, x1 = 0.206",0.109 ± 0.00239 kcal/mol
same,excess molar enthalpy,"[1]; 313.15 K, x1 = 0.308",0.151 ± 0.00335 kcal/mol
same,excess molar enthalpy,"[1]; 313.15 K, x1 = 0.411",0.179 ± 0.00382 kcal/mol
same,excess molar enthalpy,"[1]; 313.15 K, x1 = 0.51",0.193 ± 0.00406 kcal/mol
same,excess molar enthalpy,"[1]; 313.15 K, x1 = 0.609",0.192 ± 0.00406 kcal/mol
same,excess molar enthalpy,"[1]; 313.15 K, x1 = 0.708",0.174 ± 0.00382 kcal/mol
same,excess molar enthalpy,"[1]; 313.15 K, x1 = 0.806",0.138 ± 0.00311 kcal/mol
same,excess molar enthalpy,"[1]; 313.15 K, x1 = 0.907",0.0786 ± 0.00167 kcal/mol
same,excess molar enthalpy,"[1]; 313.15 K, x1 = 0.953",0.0428 ± 0.000956 kcal/mol
same,speed of sound,"[2]; 283.15 K, x1 = 0.0447",1292.4 ± 1.7 m/s
same,viscosity,"[2]; 283.15 K, x1 = 0.0518",3.231 ± 0.074 mPa·s
same,mass density,"[2]; 283.15 K, x1 = 0.0539",820.03 ± 0.91 kg/m3
same,mass density,"[2]; 283.15 K, x1 = 0.1047",822.92 ± 0.9 kg/m3
same,viscosity,"[2]; 283.15 K, x1 = 0.1048",2.67 ± 0.062 mPa·s
same,speed of sound,"[2]; 283.15 K, x1 = 0.1154",1292.6 ± 1.7 m/s
same,mass density,"[2]; 283.15 K, x1 = 0.2068",828.51 ± 0.89 kg/m3
same,viscosity,"[2]; 283.15 K, x1 = 0.2123",1.958 ± 0.046 mPa·s
same,speed of sound,"[2]; 283.15 K, x1 = 0.2143",1291.5 ± 1.7 m/s
same,speed of sound,"[2]; 283.15 K, x1 = 0.2451",1291 ± 1.7 m/s
same,mass density,"[2]; 283.15 K, x1 = 0.3108",833.9 ± 0.88 kg/m3
same,viscosity,"[2]; 283.15 K, x1 = 0.3159",1.507 ± 0.036 mPa·s
same,mass density,"[2]; 283.15 K, x1 = 0.4147",839.04 ± 0.86 kg/m3
same,viscosity,"[2]; 283.15 K, x1 = 0.4197",1.218 ± 0.03 mPa·s
same,speed of sound,"[2]; 283.15 K, x1 = 0.4221",1286.8 ± 1.6 m/s
same,mass density,"[2]; 283.15 K, x1 = 0.4893",842.56 ± 0.85 kg/m3
same,viscosity,"[2]; 283.15 K, x1 = 0.5195",1.013 ± 0.025 mPa·s
same,speed of sound,"[2]; 283.15 K, x1 = 0.5204",1284 ± 1.6 m/s
same,speed of sound,"[2]; 283.15 K, x1 = 0.6172",1281.2 ± 1.6 m/s
same,mass density,"[2]; 283.15 K, x1 = 0.6195",848.41 ± 0.84 kg/m3
same,viscosity,"[2]; 283.15 K, x1 = 0.6211",0.865 ± 0.022 mPa·s
same,viscosity,"[2]; 283.15 K, x1 = 0.7116",0.76 ± 0.02 mPa·s
same,speed of sound,"[2]; 283.15 K, x1 = 0.7128",1278.1 ± 1.6 m/s
same,mass density,"[2]; 283.15 K, x1 = 0.724",852.97 ± 0.83 kg/m3
same,speed of sound,"[2]; 283.15 K, x1 = 0.8078",1275.2 ± 1.6 m/s
same,viscosity,"[2]; 283.15 K, x1 = 0.8103",0.675 ± 0.018 mPa·s
same,mass density,"[2]; 283.15 K, x1 = 0.8923",859.92 ± 0.81 kg/m3
same,speed of sound,"[2]; 283.15 K, x1 = 0.8952",1272.2 ± 1.6 m/s
same,viscosity,"[2]; 283.15 K, x1 = 0.9246",0.607 ± 0.017 mPa·s
same,speed of sound,"[2]; 283.15 K, x1 = 0.9364",1270.3 ± 1.6 m/s
same,viscosity,"[2]; 283.15 K, x1 = 0.9585",0.584 ± 0.016 mPa·s
same,speed of sound,"[2]; 298.15 K, x1 = 0.0341",1242.6 ± 1.6 m/s
same,viscosity,"[2]; 298.15 K, x1 = 0.0518",2.212 ± 0.052 mPa·s
same,mass density,"[2]; 298.15 K, x1 = 0.102",811.16 ± 0.93 kg/m3
same,viscosity,"[2]; 298.15 K, x1 = 0.1048",1.914 ± 0.045 mPa·s
same,speed of sound,"[2]; 298.15 K, x1 = 0.1054",1241.6 ± 1.6 m/s
same,mass density,"[2]; 298.15 K, x1 = 0.2068",816.38 ± 0.92 kg/m3
same,speed of sound,"[2]; 298.15 K, x1 = 0.2085",1238.8 ± 1.6 m/s
same,viscosity,"[2]; 298.15 K, x1 = 0.2123",1.446 ± 0.035 mPa·s
same,speed of sound,"[2]; 298.15 K, x1 = 0.2968",1235.7 ± 1.6 m/s
same,mass density,"[2]; 298.15 K, x1 = 0.3108",821.37 ± 0.91 kg/m3
same,viscosity,"[2]; 298.15 K, x1 = 0.3159",1.145 ± 0.028 mPa·s
same,speed of sound,"[2]; 298.15 K, x1 = 0.3535",1233.4 ± 1.6 m/s
same,mass density,"[2]; 298.15 K, x1 = 0.4152",826.08 ± 0.9 kg/m3
same,viscosity,"[2]; 298.15 K, x1 = 0.4197",0.951 ± 0.024 mPa·s
same,speed of sound,"[2]; 298.15 K, x1 = 0.4283",1230.3 ± 1.6 m/s
same,mass density,"[2]; 298.15 K, x1 = 0.4848",829.16 ± 0.89 kg/m3
same,speed of sound,"[2]; 298.15 K, x1 = 0.5058",1226.8 ± 1.6 m/s
same,viscosity,"[2]; 298.15 K, x1 = 0.5195",0.806 ± 0.021 mPa·s
same,speed of sound,"[2]; 298.15 K, x1 = 0.6075",1222.2 ± 1.6 m/s
same,mass density,"[2]; 298.15 K, x1 = 0.6191",834.74 ± 0.87 kg/m3
same,viscosity,"[2]; 298.15 K, x1 = 0.6211",0.701 ± 0.019 mPa·s
same,speed of sound,"[2]; 298.15 K, x1 = 0.7077",1217.6 ± 1.6 m/s
same,viscosity,"[2]; 298.15 K, x1 = 0.7116",0.626 ± 0.017 mPa·s
same,mass density,"[2]; 298.15 K, x1 = 0.7245",838.88 ± 0.86 kg/m3
same,viscosity,"[2]; 298.15 K, x1 = 0.8103",0.563 ± 0.016 mPa·s
same,speed of sound,"[2]; 298.15 K, x1 = 0.8111",1212.6 ± 1.6 m/s
same,mass density,"[2]; 298.15 K, x1 = 0.8157",842.28 ± 0.86 kg/m3
same,mass density,"[2]; 298.15 K, x1 = 0.8911",845.05 ± 0.85 kg/m3
same,speed of sound,"[2]; 298.15 K, x1 = 0.8947",1208.3 ± 1.6 m/s
same,viscosity,"[2]; 298.15 K, x1 = 0.9246",0.507 ± 0.014 mPa·s
same,speed of sound,"[2]; 298.15 K, x1 = 0.9337",1206.1 ± 1.6 m/s
same,viscosity,"[2]; 298.15 K, x1 = 0.9585",0.502 ± 0.014 mPa·s
same,viscosity,"[2]; 313.15 K, x1 = 0.0518",1.555 ± 0.037 mPa·s
same,speed of sound,"[2]; 313.15 K, x1 = 0.0519",1184.6 ± 1.6 m/s
same,mass density,"[2]; 313.15 K, x1 = 0.1038",799.46 ± 0.96 kg/m3
same,viscosity,"[2]; 313.15 K, x1 = 0.1048",1.361 ± 0.033 mPa·s
same,speed of sound,"[2]; 313.15 K, x1 = 0.1237",1181.8 ± 1.6 m/s
same,mass density,"[2]; 313.15 K, x1 = 0.2098",804.34 ± 0.95 kg/m3
same,viscosity,"[2]; 313.15 K, x1 = 0.2123",1.085 ± 0.027 mPa·s
same,speed of sound,"[2]; 313.15 K, x1 = 0.2168",1177.7 ± 1.6 m/s
same,speed of sound,"[2]; 313.15 K, x1 = 0.3097",1172.9 ± 1.6 m/s
same,mass density,"[2]; 313.15 K, x1 = 0.3139",808.86 ± 0.94 kg/m3
same,viscosity,"[2]; 313.15 K, x1 = 0.3159",0.896 ± 0.023 mPa·s
same,speed of sound,"[2]; 313.15 K, x1 = 0.4133",1167.2 ± 1.6 m/s
same,mass density,"[2]; 313.15 K, x1 = 0.4135",813 ± 0.93 kg/m3
same,viscosity,"[2]; 313.15 K, x1 = 0.4197",0.759 ± 0.02 mPa·s
same,mass density,"[2]; 313.15 K, x1 = 0.4906",816.02 ± 0.92 kg/m3
same,speed of sound,"[2]; 313.15 K, x1 = 0.511",1161.3 ± 1.6 m/s
same,viscosity,"[2]; 313.15 K, x1 = 0.5195",0.651 ± 0.017 mPa·s
same,mass density,"[2]; 313.15 K, x1 = 0.6175",820.8 ± 0.91 kg/m3
same,viscosity,"[2]; 313.15 K, x1 = 0.6211",0.574 ± 0.016 mPa·s
same,speed of sound,"[2]; 313.15 K, x1 = 0.6561",1152.6 ± 1.6 m/s
same,viscosity,"[2]; 313.15 K, x1 = 0.7116",0.518 ± 0.015 mPa·s
same,mass density,"[2]; 313.15 K, x1 = 0.7256",824.59 ± 0.9 kg/m3
same,speed of sound,"[2]; 313.15 K, x1 = 0.7265",1148.3 ± 1.6 m/s
same,viscosity,"[2]; 313.15 K, x1 = 0.8103",0.473 ± 0.014 mPa·s
same,speed of sound,"[2]; 313.15 K, x1 = 0.8151",1142.7 ± 1.6 m/s
same,mass density,"[2]; 313.15 K, x1 = 0.8172",827.71 ± 0.89 kg/m3
same,mass density,"[2]; 313.15 K, x1 = 0.8909",830.17 ± 0.89 kg/m3
same,speed of sound,"[2]; 313.15 K, x1 = 0.8995",1137.1 ± 1.6 m/s
same,viscosity,"[2]; 313.15 K, x1 = 0.9246",0.432 ± 0.013 mPa·s
same,speed of sound,"[2]; 313.15 K, x1 = 0.9476",1133.5 ± 1.6 m/s
same,viscosity,"[2]; 313.15 K, x1 = 0.9585",0.425 ± 0.012 mPa·s
